From ChEMBL document CHEMBL3351906, “Bioactive triterpenoid saponins and phenolic compounds against glioma cells” (Bioorg Med Chem Lett, 2014)
Calls of active or inactive are those of the source. The rule behind the calls is not given here.

Key:
[1] = system: U-251; experiment: Inhibition of cell proliferation of human U251 cells assessed as cell viability after 72 hrs by sulforhodamine B assay; type: functional, cell-based; details: for IC50: U-251, 72 h
[2] = system: C6; experiment: Inhibition of cell proliferation of rat C6 cells assessed as cell viability after 72 hrs by sulforhodamine B assay; type: functional, cell-based; details: for IC50: C6, 72 h
[3] = (§1) Inhibition of cell proliferation of human U87MG cells assessed as cell viability after 72 hrs by sulforhodamine B assay; type: functional, cell-based, U-87MG ATCC; details: U-87 MG
[4] = system: U-251; experiment: Inhibition of cell proliferation of human U251 cells assessed as cell viability at 100 uM after 72 hrs by sulforhodamine B assay; type: functional; details: U-251, 72 h, read-out: Activity
[5] = system: C6; experiment: Induction of apoptosis in rat C6 cells assessed as nuclear pyknosis at 2.5 uM after 72 hrs by DAPI staining based fluorescence microscopy; type: functional, cell-based
[6] = system: C6; experiment: Induction of necrosis in rat C6 cells at 2.5 uM after 72 hrs by propidium iodide staining based fluorescence microscopy; type: functional, cell-based
[7] = system: U-251; experiment: Induction of apoptosis in human U251 cells assessed as nuclear pyknosis at 20 uM after 72 hrs by DAPI staining based fluorescence microscopy; type: functional, cell-based
[8] = system: U-251; experiment: Induction of necrosis in human U251 cells at 20 uM after 72 hrs propidium iodide staining based fluorescence microscopy; type: functional, cell-based
[9] = system: C6; experiment: Inhibition of cell proliferation of rat C6 cells assessed as cell viability at 100 uM after 72 hrs by sulforhodamine B assay; type: functional; details: C6, 72 h, read-out: Activity
[10] = system: U-87MG ATCC; experiment: as §1; type: functional, cell-based
[11] = system: C6; experiment: Induction of apoptosis in rat C6 cells assessed as nuclear pyknosis at 10 uM after 72 hrs by DAPI staining based fluorescence microscopy; type: functional, cell-based
[12] = system: C6; experiment: Induction of necrosis in rat C6 cells at 10 uM after 72 hrs by propidium iodide staining based fluorescence microscopy; type: functional, cell-based
[13] = system: U-251; experiment: Induction of apoptosis in human U251 cells assessed as nuclear pyknosis at 15 uM after 72 hrs by DAPI staining based fluorescence microscopy; type: functional, cell-based
[14] = system: U-251; experiment: Induction of necrosis in human U251 cells at 15 uM after 72 hrs propidium iodide staining based fluorescence microscopy; type: functional, cell-based
[15] = system: U-251; experiment: Induction of apoptosis in human U251 cells assessed as viable cell level at 40 uM after 72 hrs by annexin V-FITC/propidium iodide double staining based flow cytometry (reference value: 91.04%); type: functional
[16] = system: U-251; experiment: Induction of apoptosis in human U251 cells assessed as early apoptotic level at 40 uM after 72 hrs by annexin V-FITC/propidium iodide double staining based flow cytometry (reference value: 1.77%); type: functional
[17] = system: U-251; experiment: Induction of apoptosis in human U251 cells assessed as late apoptotic level at 40 uM after 72 hrs by annexin V-FITC/propidium iodide double staining based flow cytometry (reference value: 4.95%); type: functional
[18] = system: U-251; experiment: Induction of apoptosis in human U251 cells assessed as necrotic cell level at 40 uM after 72 hrs by annexin V-FITC/propidium iodide double staining based flow cytometry (reference value: 2.24%); type: functional
[19] = system: C6; experiment: Induction of apoptosis in rat C6 cells assessed as viable cell level at 6 uM after 72 hrs by annexin V-FITC/propidium iodide double staining based flow cytometry (reference value: 93.43); type: functional
[20] = system: C6; experiment: Induction of apoptosis in rat C6 cells assessed as nuclear pyknosis at 6 uM after 72 hrs by DAPI staining based fluorescence microscopy; type: functional, cell-based
[21] = system: C6; experiment: Induction of necrosis in rat C6 cells at 6 uM after 72 hrs by propidium iodide staining based fluorescence microscopy; type: functional, cell-based
[22] = system: U-251; experiment: Induction of apoptosis in human U251 cells assessed as nuclear pyknosis at 10 uM after 72 hrs by DAPI staining based fluorescence microscopy; type: functional, cell-based
[23] = system: U-251; experiment: Induction of necrosis in human U251 cells at 10 uM after 72 hrs propidium iodide staining based fluorescence microscopy; type: functional, cell-based
[24] = system: C6; experiment: Induction of apoptosis in rat C6 cells assessed as early apoptotic level at 6 uM after 72 hrs by annexin V-FITC/propidium iodide double staining based flow cytometry (reference value: 1.67%); type: functional
[25] = system: C6; experiment: Induction of apoptosis in rat C6 cells assessed as late apoptotic level at 6 uM after 72 hrs by annexin V-FITC/propidium iodide double staining based flow cytometry (reference value: 3.68%); type: functional
[26] = system: C6; experiment: Induction of apoptosis in rat C6 cells assessed as necrotic cell level at 6 uM after 72 hrs by annexin V-FITC/propidium iodide double staining based flow cytometry (reference value: 1.22%); type: functional
[27] = system: U-251; experiment: Induction of apoptosis in human U251 cells assessed as viable cell level at 10 uM after 72 hrs by annexin V-FITC/propidium iodide double staining based flow cytometry (reference value: 94.49%); type: functional
[28] = system: U-251; experiment: Induction of apoptosis in human U251 cells assessed as early apoptotic level at 10 uM after 72 hrs by annexin V-FITC/propidium iodide double staining based flow cytometry (reference value: 0.56%); type: functional
[29] = system: U-251; experiment: Induction of apoptosis in human U251 cells assessed as late apoptotic level at 10 uM after 72 hrs by annexin V-FITC/propidium iodide double staining based flow cytometry (reference value: 3.16%); type: functional
[30] = system: U-251; experiment: Induction of apoptosis in human U251 cells assessed as necrotic cell level at 10 uM after 72 hrs by annexin V-FITC/propidium iodide double staining based flow cytometry (reference value: 1.79%); type: functional

| Compound | IC50 [1] [µM] | IC50 [2] [µM] | IC50 [3] [µM] | viability at 100 µM [4] [%] | viability at 100 µM [9] [%] | inhibition [1] | inhibition [2] | inhibition [10] | also measured |
| --- | --- | --- | --- | --- | --- | --- | --- | --- | --- |
| COc1cc(CCC(=O)OCCc2ccc(O)c(O)c2)ccc1O | 29.5 | 5.37 |  | 48.4 |  |  |  |  | Activity [5]: Active; Activity [6]: Active; Activity [7]: Active; Activity [8]: Active |
| C[C@@H]1O[C@@H](O[C@H]2[C@H](OC(=O)[C@]34CCC(C)(C)C[C@H]3C3=CC[C@@H]5[C@@]6(C)CC[C@H](O[C@@H]7O[C@H](CO[C@@H]8OC[C@H](O)[C@H](O)[C@H]8O[C@@H]8OC[C@@H](O)[C@H](O)[C@H]8O)[C@@H](O)[C@H](O)[C@H]7O)C(C)(C)[C@@H]6CC[C@@]5(C)[C@]3(C)CC4)O[C@H](CO)[C@@H](O)[C@@H]2O)[C@H](O)[C@H](O)[C@H]1O[C@@H]1OC[C@@H](O)[C@H](O[C@@H]2OC[C@@H](O)[C@H](O)[C@H]2O)[C@H]1O |  |  |  | 91.8 | 62.7 | inactive | inactive | inactive |  |
| C[C@@H]1O[C@@H](OC[C@H]2O[C@@H](OC(=O)[C@]34CCC(C)(C)C[C@H]3C3=CC[C@@H]5[C@@]6(C)CC[C@H](O[C@@H]7O[C@H](CO[C@@H]8OC[C@H](O)[C@H](O)[C@H]8O)[C@@H](O)[C@H](O)[C@H]7O)C(C)(C)[C@@H]6CC[C@@]5(C)[C@]3(C)C[C@H]4O)[C@H](O[C@@H]3O[C@@H](C)[C@H](O[C@@H]4OC[C@@H](O)[C@H](O[C@@H]5OC[C@@H](O)[C@H](O)[C@H]5O)[C@H]4O)[C@@H](O)[C@H]3O)[C@@H](O)[C@@H]2O)[C@H](O)[C@H](O)[C@H]1O |  |  |  | 72.3 | 63.9 | inactive | inactive | inactive |  |
| C[C@@H]1O[C@@H](O[C@H]2[C@H](OC(=O)[C@]34CCC(C)(C)C[C@H]3C3=CC[C@@H]5[C@@]6(C)CC[C@H](O[C@@H]7O[C@H](CO[C@@H]8OC[C@H](O)[C@H](O)[C@H]8O[C@@H]8OC[C@@H](O)[C@H](O)[C@H]8O)[C@@H](O)[C@H](O)[C@H]7O)C(C)(C)[C@@H]6CC[C@@]5(C)[C@]3(C)C[C@H]4O)O[C@H](CO)[C@@H](O)[C@@H]2O)[C@H](O[C@@H]2O[C@H](CO)[C@H](O)[C@H](O)[C@H]2O)[C@H](O)[C@H]1O[C@@H]1OC[C@@H](O)[C@H](O[C@@H]2OC[C@@H](O)[C@H](O)[C@H]2O)[C@H]1O |  |  |  | 130 | 61.5 | inactive | inactive | inactive |  |

Second part, led by results:

| IC50 [1] [µM] | Compound | IC50 [2] [µM] | IC50 [3] [µM] | viability at 100 µM [4] [%] | viability at 100 µM [9] [%] | inhibition [1] | inhibition [2] | inhibition [10] | also measured |
| --- | --- | --- | --- | --- | --- | --- | --- | --- | --- |
| > 200 | Cn1nnc2c(C(N)=O)ncn2c1=O [TEMOZOLOMIDE] | 60.5 | > 200 |  |  |  |  |  |  |
| 15.6 | C/C=C(/C)C(=O)O[C@H]1[C@H](O)[C@]2(COC(C)=O)[C@H](O)C[C@]3(C)C(=CC[C@@H]4[C@@]5(C)CC[C@H](O[C@@H]6O[C@H](C(=O)OC)[C@@H](O[C@@H]7O[C@H](CO)[C@@H](O)[C@H](O)[C@H]7O)[C@H](O)[C@H]6O[C@@H]6O[C@H](CO)[C@@H](O)[C@H](O)[C@H]6O)[C@](C)(CO)[C@@H]5CC[C@]43C)[C@@H]2CC1(C)C | 11 | 8.32 | 22.2 |  |  |  |  | Activity [11]: Active; Activity [12]: Active; Activity [13]: Active; Activity [14]: Active; Activity [15]: 62.1%; Activity [16]: 7.06%; Activity [17]: 26.54%; Activity [18]: 4.3% |
| 16.9 | C=C[C@@](C)(O)CC/C=C(\C)C(=O)OC[C@H]1O[C@@H](OC(=O)[C@]23CCC(C)(C)C[C@H]2C2=CC[C@@H]4[C@@]5(C)CC[C@H](O[C@@H]6O[C@H](CO[C@@H]7OC[C@H](O)[C@H](O)[C@H]7O[C@@H]7OC[C@@H](O)[C@H](O)[C@H]7O)[C@@H](O)[C@H](O)[C@H]6O)C(C)(C)[C@@H]5CC[C@@]4(C)[C@]2(C)CC3)[C@H](O[C@@H]2O[C@@H](C)[C@H](O[C@@H]3OC[C@@H](O)[C@H](O[C@@H]4OC[C@@H](O)[C@H](O)[C@H]4O)[C@H]3O)[C@@H](O)[C@H]2O)[C@@H](O)[C@@H]1O | 7.3 | 14.7 | 14.2 |  |  |  |  | Activity [19]: 40.15%; Activity [20]: Active; Activity [21]: Active; Activity [22]: Active; Activity [23]: Active; Activity [24]: 16.73%; Activity [25]: 21.37%; Activity [26]: 21.75%; Activity [27]: 64.13%; Activity [28]: 4.12%; Activity [29]: 18.13%; Activity [30]: 13.62% |
